Results taken from EPA's ToxValDB 9.5 (doi:10.2903/j.efsa.2008.119r).

What was measured:
[1] = system: Mus musculus; details: chronic; duration: 2 years; hematological
[2] = system: Oncorhynchus mykiss; details: chronic/long-term; duration: 21 days; growth
[3] = system: Rattus norvegicus
[4] = system: Daphnia magna; details: chronic/long-term; duration: 21 days; reproduction
[5] = system: Oryctolagus sp.; details: reproduction developmental; mortality
[6] = system: Tagia sp.; details: chronic/long-term; duration: 56 days
[7] = system: Typhlodromus pyri; details: not reported; mortality
[8] = system: Coturnix japonica; details: reproduction developmental
[9] = system: Bibionidae; details: chronic/long-term; duration: 28 days

COC(=O)c1cc(Oc2ccc(Cl)cc2Cl)ccc1[N+](=O)[O-] [Bifenox]
NOAEL [1]: 30 mg/kg-day | NOEC [2]: 0.0091 mg/L | NOAEL ([3]; chronic): 16 mg/kg-day | NOAEL ([3]; reproduction developmental, reproduction): 44.5 mg/kg-day | NOEC [4]: 0.00015 mg/L | NOAEL [5]: 50 mg/kg-day | NOEC [6]: 5.1 mg/kg | LEL [7]: 720 g/ha | NOEC [8]: 290 mg/kg-day | NOEC [9]: 0.015 mg/L
